# Reference: ChEMBL document CHEMBL1201862, “PubChem BioAssay data set” (2004)
#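 These data come from cells grown in 96-well plates and exposed to compound for 48 hours at five concentrations. The concentration for 50% growth inhibition is given as GI50.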 Active and inactive are the calls of the source. No stated cut-off is given here; in the data, active = GI50 up to about 1.1 µM and inactive = higher.
# Legend:
# Experiment in all cases: inhibition of tumour cell growth, NCI panel, 48 h
# EKVX = test system: EKVX
# HT-29 = test system: HT-29
# IGROV-1 = test system: IGROV-1
# NCI-H23 = test system: NCI-H23
# SK-OV-3 = test system: SK-OV-3
# OVCAR-5 = test system: OVCAR-5
# PC-3 = test system: PC-3
# SN12C = test system: SN12C
# MCF7 = test system: MCF7
# Malme-3M = test system: Malme-3M
# MDA-N = test system: MDA-N
# RXF 393 = test system: RXF 393
# A498 = test system: A498
# SK-MEL-2 = test system: SK-MEL-2
# SW-620 = test system: SW-620
# K562 = test system: K562
# MDA-MB-435 = test system: MDA-MB-435
# SK-MEL-5 = test system: SK-MEL-5
# U-251 = test system: U-251
# MOLT-4 = test system: MOLT-4
# SF-295 = test system: SF-295
# SR = test system: SR
# UACC-62 = test system: UACC-62
# NCI-H226 = test system: NCI-H226
# SNB-19 = test system: SNB-19
# KM12 = test system: KM12
# RPMI-8226 = test system: RPMI-8226
# CCRF-CEM = test system: CCRF-CEM
# DU-145 = test system: DU-145
# T47D = test system: T47D
# ACHN = test system: ACHN
# HCT-116 = test system: HCT-116
# UO-31 = test system: UO-31
# COLO 205 = test system: COLO 205
# UACC-257 = test system: UACC-257
# MDA-MB-231 = test system: MDA-MB-231
# Hs-578T = test system: Hs-578T
# NCI-H522 = test system: NCI-H522
# SNB-75 = test system: SNB-75
# NCI-H460 = test system: NCI-H460
# SK-MEL-28 = test system: SK-MEL-28
# SF-268 = test system: SF-268
# 786-0 = test system: 786-0
# M14 = test system: M14
# HCC 2998 = test system: HCC 2998
# BT-549 = test system: BT-549
# OVCAR-3 = test system: OVCAR-3
# HL-60 = test system: HL-60
# NCI/ADR-RES = test system: NCI/ADR-RES
# OVCAR-4 = test system: OVCAR-4
# TK-10 = test system: TK-10
# A549 = test system: A549
# HCT-15 = test system: HCT-15
# OVCAR-8 = test system: OVCAR-8
# HOP-62 = test system: HOP-62
# SF-539 = test system: SF-539
# CAKI-1 = test system: CAKI-1
# HOP-92 = test system: HOP-92
# LOX IMVI = test system: LOX IMVI
smiles,measurement,setting,value
CCCCCCC(N)(CCCCCC)C(=O)Nn1c(C)ccc1C,GI50,EKVX,12 µM (inactive)
same,GI50,HT-29,28.4 µM (inactive)
same,GI50,IGROV-1,> 100 µM (inactive)
same,GI50,NCI-H23,15.5 µM (inactive)
same,GI50,SK-OV-3,> 100 µM (inactive)
same,GI50,OVCAR-5,> 100 µM (inactive)
same,GI50,PC-3,5.14 µM (inactive)
same,GI50,SN12C,> 100 µM (inactive)
same,GI50,MCF7,14.6 µM (inactive)
same,GI50,Malme-3M,> 100 µM (inactive)
same,GI50,MDA-N,> 100 µM (inactive)
same,GI50,RXF 393,25.7 µM (inactive)
same,GI50,A498,> 100 µM (inactive)
same,GI50,SK-MEL-2,> 100 µM (inactive)
same,GI50,SW-620,> 100 µM (inactive)
same,GI50,K562,> 100 µM (inactive)
same,GI50,MDA-MB-435,> 100 µM (inactive)
same,GI50,SK-MEL-5,21.9 µM (inactive)
same,GI50,U-251,> 100 µM (inactive)
same,GI50,MOLT-4,> 100 µM (inactive)
same,GI50,SF-295,> 100 µM (inactive)
same,GI50,SR,29.9 µM (inactive)
same,GI50,UACC-62,48 µM (inactive)
same,GI50,NCI-H226,43.7 µM (inactive)
same,GI50,SNB-19,> 100 µM (inactive)
same,GI50,KM12,15.5 µM (inactive)
same,GI50,RPMI-8226,13.6 µM (inactive)
same,GI50,CCRF-CEM,> 100 µM (inactive)
same,GI50,DU-145,> 100 µM (inactive)
same,GI50,T47D,13.6 µM (inactive)
same,GI50,ACHN,6.55 µM (inactive)
same,GI50,HCT-116,10.9 µM (inactive)
same,GI50,UO-31,25.1 µM (inactive)
same,GI50,COLO 205,57.4 µM (inactive)
same,GI50,UACC-257,36.4 µM (inactive)
same,GI50,MDA-MB-231,88.3 µM (inactive)
same,GI50,Hs-578T,18.8 µM (inactive)
same,GI50,NCI-H522,53.8 µM (inactive)
same,GI50,SNB-75,29.4 µM (inactive)
same,GI50,NCI-H460,31.8 µM (inactive)
same,GI50,SK-MEL-28,> 100 µM (inactive)
same,GI50,SF-268,16 µM (inactive)
same,GI50,786-0,28.6 µM (inactive)
same,GI50,M14,> 100 µM (inactive)
same,GI50,HCC 2998,> 100 µM (inactive)
same,GI50,BT-549,> 100 µM (inactive)
same,GI50,OVCAR-3,> 100 µM (inactive)
same,GI50,HL-60,5.36 µM (inactive)
same,GI50,NCI/ADR-RES,16 µM (inactive)
same,GI50,OVCAR-4,> 100 µM (inactive)
same,GI50,TK-10,> 100 µM (inactive)
same,GI50,A549,11.4 µM (inactive)
same,GI50,HCT-15,24 µM
same,GI50,OVCAR-8,50 µM (inactive)
same,GI50,HOP-62,> 100 µM (inactive)
CC(=O)Oc1c2c(c3n(c1=O)CCCC3)C(=O)N(c1ccccc1)C2=O,GI50,EKVX,94 µM (inactive)
same,GI50,HT-29,94.2 µM (inactive)
same,GI50,IGROV-1,78.5 µM (inactive)
same,GI50,SF-539,> 100 µM (inactive)
same,GI50,NCI-H23,> 100 µM (inactive)
same,GI50,SK-OV-3,> 100 µM (inactive)
same,GI50,OVCAR-5,> 100 µM (inactive)
same,GI50,PC-3,46.5 µM (inactive)
same,GI50,SN12C,83.2 µM (inactive)
same,GI50,MCF7,> 100 µM (inactive)
same,GI50,Malme-3M,> 100 µM (inactive)
same,GI50,MDA-N,52.8 µM (inactive)
same,GI50,RXF 393,> 100 µM (inactive)
same,GI50,CAKI-1,> 100 µM (inactive)
same,GI50,SK-MEL-2,45.8 µM (inactive)
same,GI50,SW-620,> 100 µM (inactive)
same,GI50,K562,> 100 µM (inactive)
same,GI50,MDA-MB-435,46.9 µM (inactive)
same,GI50,SK-MEL-5,53.3 µM (inactive)
same,GI50,U-251,> 100 µM (inactive)
same,GI50,MOLT-4,> 100 µM (inactive)
same,GI50,SF-295,61 µM (inactive)
same,GI50,SR,> 100 µM (inactive)
same,GI50,UACC-62,63.7 µM (inactive)
same,GI50,NCI-H226,60 µM (inactive)
same,GI50,SNB-19,> 100 µM (inactive)
same,GI50,KM12,> 100 µM (inactive)
same,GI50,CCRF-CEM,> 100 µM (inactive)
same,GI50,DU-145,> 100 µM (inactive)
same,GI50,T47D,87.5 µM (inactive)
same,GI50,ACHN,51.4 µM (inactive)
same,GI50,HCT-116,> 100 µM (inactive)
same,GI50,UO-31,95.7 µM (inactive)
same,GI50,COLO 205,> 100 µM (inactive)
same,GI50,HOP-92,40.7 µM (inactive)
same,GI50,MDA-MB-231,> 100 µM (inactive)
same,GI50,Hs-578T,> 100 µM (inactive)
same,GI50,LOX IMVI,> 100 µM (inactive)
same,GI50,NCI-H522,61.5 µM (inactive)
same,GI50,SNB-75,87.5 µM (inactive)
same,GI50,NCI-H460,> 100 µM (inactive)
same,GI50,SK-MEL-28,> 100 µM (inactive)
same,GI50,SF-268,> 100 µM (inactive)
same,GI50,786-0,> 100 µM (inactive)
same,GI50,M14,> 100 µM (inactive)
same,GI50,HCC 2998,30.8 µM (inactive)
same,GI50,BT-549,38.2 µM (inactive)
same,GI50,OVCAR-3,86.7 µM (inactive)
same,GI50,HL-60,> 100 µM (inactive)
same,GI50,NCI/ADR-RES,65.3 µM (inactive)
same,GI50,OVCAR-4,54.3 µM (inactive)
same,GI50,TK-10,94.6 µM (inactive)
same,GI50,A549,> 100 µM (inactive)
same,GI50,HCT-15,59 µM
same,GI50,OVCAR-8,> 100 µM (inactive)
same,GI50,HOP-62,> 100 µM (inactive)
